In patent publication US20230285317A1, “DILUENTS, STANDARDIZATION AGENTS AND VISCOSITY CONTROL FOR CANNABINOIDS FORMULATIONS AND METHODS THEREOF” (Scientific Holdings, LLC, priority 2022, published 2023):

Tests used:
[1] = Long-term solubility and oil stability of cannabinoids in CBC at room temperature; type: physicochemical; conditions: solid cannabinoid in CBC
Method: In an example embodiment, the solubility of a number of solid cannabinoid isolates in concentrations of 10-80 percent by mass were evaluated in CBC, a viscous oil at room-temperature. Solubility is assessed at 25 degrees (Celsius), after heating to 35 degrees (Celsius), after heating to 70 degrees (Celsius), and after heating to 100 degrees (Celsius). The solubility of cannabinoids with CBC is then observed at room temperature at various time points after formulation to determine long-term solubility and oil stability.
The samples were then heated at an appropriate temperature for 15 total minutes in a water bath and then if any of the CBD remained solid, the vial would be heated for 15 minutes at the next temperature level. A glass thermometer was used to observe and record the temperature. All eight vials corresponding to the eight concentrations of CBD in CBC became a homogeneous mass upon 6-8 minutes heating at 70 degrees (Celsius).
The samples were then heated at an appropriate temperature for 15 total minutes in a water bath and then if any of the CBG remained solid the vial would be heated for 15 minutes at the next temperature level. A glass thermometer was used to observe and record the temperature. […] The viscosity of the solution containing 50% CBG (Vial 13) and 60% CBG (Vial 14) increased upon standing for 35 to 40 minutes at room temperature.
The samples were then heated at an appropriate temperature for 15 total minutes in a water bath and then if any of the CBDA remained solid the vial would be heated for 15 minutes at the next temperature level. A glass thermometer was used to observe and record the temperature. […] But no solids were evident after 4 minutes at 100 degrees (Celsius). […] Vials 20 through 24, containing […] CBDA respectively in 10 weight percent increments, were homogenous liquids after 7 minutes at 100° C. The samples containing 30% CBDA to 60% CBDA became very viscous but remained liquid after 20 minutes at room temperature.
After day 1, the samples containing 10% to 80% CBD appeared more viscous but remained homogeneous oils. […]

[2] = Solubility of CBG in bisabolol; type: physicochemical
Description: Roughly 10% of the original amount of CBG seemed to remain crystalline in the sample containing 30% CBG. Approximately 20% the original amount of CBG remained crystalline in the sample containing 40% CBG. Approximately 30% of the original amount of CBG remained solid in the sample containing 50% CBG and approximately 40% of the original mass of CBG remained solid in the solution containing 60% CBG.

| Structure (SMILES) | concentration up to which CBC gives a flowable and stable oil [1] [%] | concentration of CBG in a flowable and stable oil made with bisabolol [2] |
| --- | --- | --- |
| C=C(C)[C@@H]1CCC(C)=C[C@H]1c1c(O)cc(CCCCC)cc1O [CBD, cannabidiol, reference compound] | ≤ 80 |  |
| C=C(C)[C@@H]1CCC(C)=C[C@H]1c1c(O)cc(CCCCC)c(C(=O)O)c1O [CBDA, cannabidiolic acid] | ≤ 20 |  |
| CCCCCc1cc(O)c(C/C=C(\C)CCC=C(C)C)c(O)c1 [CBG, cannabigerol] | ≤ 40 | greater than 60% |
